Columns and labels:
[1] = Order parameter in liquid crystal medium E43; format: physicochemical; settings: E43, 20° C.
Procedure: (§1) In order to provide maximum contrast between the two states it is important that the guest molecules adopt as closely as possible the time averaged orientation of the host, however this is achieved only to a limited degree because of random thermal fluctuations. The degree to which the orientation varies from the ideal is measured by a quantity known as the order parameter S which is given by the following equation: […]
where cos^2 θ is a time averaged term and θ is the instantaneous angular orientation of the molecules with respect to the time averaged orientation of the host molecules.

[2] = Absorption maximum in liquid crystal medium E43; format: physicochemical; settings: E43, 20° C.; for max: HPLC fractions, Table 3; for λmax: Table 4
From the text: Detection was by means of a u.v. source (254 nm) and samples, corresponding to all the peaks in the chromatogram, were collected.

[3] = Order parameter in other liquid crystal media (hosts) / liquid crystal materials; format: physicochemical; settings: general statement
Procedure: as §1
where cos^2 θ is a time averaged term and θ is the instantaneous angular orientation of the molecules with respect to the time averaged orientation of the host molecules. The determination of the value of the order parameter S is well understood in the art, see for example the paper, "A new absorptive mode reflective liquid crystal display device", by D. L. White and G. N. Taylor in the Journal of Applied Physics, 1974, 45, pages […] to 4723.
(§2) The properties of some of the dyes described in the Examples were also measured in other liquid crystal media (hosts) at 20° C., unless otherwise stated, and the results are set out in Table 5.
(§3) The liquid crystal materials referred to in Table 5 as Hosts 1 to 12 have the following compositions:
(§4) Host 1 is the liquid crystal material E7, available from BDH Chemicals Ltd, which includes the compounds:
(§5) Host 2 is the liquid crystal material ZLI 1132, available from E Merck & Co, which includes the following compounds:
(§6) Host 3 is the liquid crystal material ZLI 1695, available from E Merck & Co, Darmstadt, West Germany. This has a clearing point (nematic to isotropic transition temperature) of 72° C.
(§7) Host 4 is a mixture of alkyl-cyanophenyl-dioxanes containing n-propyl, n-pentyl and n-heptyl chains.
(§8) Host 5 is the liquid crystal material ZLI 1565, available from E Merck & Co. This has a clearing point of 85° C.
(§9) Host 6 is the liquid crystal material ZLI 1624, available from E Merck & Co. This has a clearing point of 87° C.
(§10) Host 8 is the liquid crystal material RO-TN 430 available from Hoffmann La Roche Co. This has a clearing point of 69° C.
(§11) Host 9 is a mixed bicyclo-octane liquid crystal material containing the following compounds:
(§12) Host 10 is a mixture of liquid crystal materials based mainly on cyanobiphenyls and available from BDH Chemicals Ltd under the name E61.
(§13) Host 11 is a mixture of liquid crystal materials based mainly on cyanobiphenyls and available from BDH Chemicals Ltd under the name E49.
(§14) Host 12 is a mixture of fluorobicyclo(2,2,2)octane esters having negative anisotropy and containing a mixture of two compounds of the following formula: […]

[4] = Molar extinction coefficient in chloroform; format: physicochemical
Procedure: To a mixture of 9.4 g of 2,7-di-n-pentyl-4,5-dinitrochrysazin from Example 25(b) in 200 ml of pyridine at 20° C. there was added a solution of 2.2 ml of thiophenol in 50 ml of pyridine. The colour of the mixture gradually changed from orange-brown to red and after 2 hours at 20° C. was drowned into water, filtered, washed successively with water and methanol and dried to yield 9.5 g of product (88% theory). The structure was confirmed by mass spectrometry and elemental analysis, C=67.5 (67.5) H=5.8 (5.8) S=6.7 (6.0) and N=3.0 (2.7).
To a mixture of 1.7 ml of 4-t-butylphenylmercaptan and 0.4 g of KOH in 50 ml of isopropanol at 60° C. was added 3.7 g of the product of Example 25(c) and the temperature raised to 80° C. for 1.5 hour. It was then cooled to room temperature, filtered, washed successively with isopropanol and methanol and dried to give 3.5 g of product. After recrystallisation from petroleum ether, the structure was confirmed by mass spectrometry and elemental analysis, C=73.0 (73.6) H=6.5 (6.8) S=9.1 (9.8).
The process of Example 25(c) was repeated using 9.6 g of 2,7-n-heptyl-4,5-dinitrochrysazin in place of the 9.4 g of 2,7-di-n-pentyl-4,5-dinitrochrysazin. The structure was confirmed by mass spectrometry.
The process of Example 25(d) was repeated using 3.8 g of 2,7-di-n-heptyl-4-phenylthio-5-nitrochrysazin in place of the 3.7 g of 2,7-di-n-pentyl-4-phenylthio-5-nitrochrysazin. After recrystallisation from petroleum ether, the structure was confirmed by mass spectrometry.

[5] = Solubility in other liquid crystal media (hosts) / liquid crystal materials; format: physicochemical; settings: general statement
Procedure: as §2, §3, §4, §5, §6, §7, §8, §9, §10, §11, §12, §13, §14

[6] = Solubility in liquid crystal material E43; settings: E43, 20° C., HPLC fractions, Table 3

Row | Order Parameter ([1]; Table 4) | λmax [2] | Compound | other results
1 | – | – | CC(C)(C)c1ccc(Sc2ccc(Sc3ccc(C(C)(C)C)cc3)c3c2C(=O)c2c(Sc4ccc(C(C)(C)C)cc4)ccc(Sc4ccc(C(C)(C)C)cc4)c2C3=O)cc1 (single isomer, unassigned) [1,4,5,8-tetrakis(4-t-butylphenylthio)anthraquinone, reference compound] | Order Parameter ([1]; HPLC fractions, Table 3): 0.78; max [2]: 550 nm
2 | – | – | O=C1c2c(Sc3ccccc3)ccc(Sc3ccccc3)c2C(=O)c2c(Sc3ccccc3)ccc(Sc3ccccc3)c21 (single isomer, unassigned) [1,4,5,8-tetrakis(phenylthio)anthraquinone, reference compound] | Order Parameter ([1]; HPLC fractions, Table 3): 0.78; max [2]: 550 nm
3 | 0.74 | 565/610 | CC(CCc1cc(N)c2c(c1O)C(=O)c1c(O)c(CCC(C)CC(C)(C)C)cc(Sc3ccccc3)c1C2=O)CC(C)(C)C (stereo not shown) [23(d), 1,8-dihydroxy-2,7-di-nonyl-4-phenylthio-5-aminoanthraquinone] | –
4 | 0.72 | 590 nm | CC(CCc1cc(Sc2ccccc2)c2c(c1O)C(=O)c1c(O)c(CCC(C)CC(C)(C)C)cc(Sc3ccccc3)c1C2=O)CC(C)(C)C (stereo not shown) [23(f), 1,8-dihydroxy-2,7-dinonyl-4,5-diphenylthio-AQ] | –
5 | 0.83 | 590 nm | CCCCCCCCCCCCc1cc(Sc2ccccc2)c2c(c1O)C(=O)c1c(O)c(CCCCCCCCCCCC)cc(Sc3ccc(C(C)(C)C)cc3)c1C2=O [24(d), 1,8-dihydroxy-2,7-didodecyl-4-phenylthio-5-(4-t-butylphenylthio)-AQ] | –
6 | 0.78 | 592 nm | CCCCCCCc1cc(Sc2ccccc2)c2c(c1O)C(=O)c1c(O)c(CCCCCCC)cc(Sc3ccc(C(C)(C)C)cc3)c1C2=O [26(d), 2,7-Di-n-heptyl-4-phenylthio-5-(4-t-butylphenylthio)chrysazin] | order parameter in liquid crystal materials (in words) [3]: high; molar extinction coefficient ([4]; 592 nm): 19,650; solubility in liquid crystal materials (in words) [5]: particularly good
7 | 0.78 | 464 nm | Cc1cccc(Sc2cccc3c2C(=O)c2cccc(Sc4ccccc4)c2C3=O)c1 [Example 12, 1-phenylthio-5(3-methylphenylthio)AQ] | –
8 | 0.80 | 464 nm | Cc1ccc(Sc2cccc3c2C(=O)c2cccc(Sc4ccccc4)c2C3=O)cc1 [Example 13, 1-phenylthio-5(4-methylphenylthio)AQ] | –
9 | 0.75 | 470 nm | CCCCSc1cccc2c1C(=O)c1cccc(Sc3ccccc3)c1C2=O [Example 14, 1-phenylthio-5(n-butylthio)AQ] | –
10 | 0.78 | 460 nm | O=C1c2cccc(Sc3ccc(-c4ccccc4)cc3)c2C(=O)c2cccc(Sc3ccccc3)c21 [Example 15, 1-phenylthio-5(4-phenylphenylthio)AQ] | –
11 | 0.81 | 465 nm | O=C1c2cccc(SC3CCCCC3)c2C(=O)c2cccc(Sc3ccccc3)c21 [Example 16, 1-phenylthio-5-cyclohexylthio-AQ] | –
12 | 0.73 | 605 nm | CC(C)(C)c1ccc(Sc2ccc(N)c3c2C(=O)c2c(N)ccc(Sc4ccccc4)c2C3=O)cc1 [Example 18, 1-phenylthio-5(4-t-butylphenylthio)-4,8-diamino-AQ] | –
13 | 0.81 | 520 nm | CC(C)(C)c1ccc(Sc2cccc3c2C(=O)c2c(Sc4ccccc4)ccc(Sc4ccc(C(C)(C)C)cc4)c2C3=O)cc1 [Example 22, 1,5-di(4-t-butylphenylthio)-4-phenylthio-AQ] | –
14 | 0.72 | 565/610 | CC(CCc1cc(Sc2ccccc2)c2c(c1O)C(=O)c1c([N+](=O)[O-])cc(CCC(C)CC(C)(C)C)c(O)c1C2=O)CC(C)(C)C (stereo not shown) [Example 23(a), 1,5-dihydroxy-2,6-dinonyl-4-phenylthio-8-nitroanthraquinone] | –
15 | 0.73 | 565/610 | CC(CCc1cc(N)c2c(c1O)C(=O)c1c(Sc3ccccc3)cc(CCC(C)CC(C)(C)C)c(O)c1C2=O)CC(C)(C)C (stereo not shown) [Example 23(c), 1,5-dihydroxy-2,6-dinonyl-4-phenylthio-8-aminoanthraquinone] | –
16 | 0.77 | 590 nm | CC(CCc1cc(Sc2ccccc2)c2c(c1O)C(=O)c1c(Sc3ccccc3)cc(CCC(C)CC(C)(C)C)c(O)c1C2=O)CC(C)(C)C (stereo not shown) [Example 23(e), 1,5-dihydroxy-2,6-dinonyl-4,8-diphenylthio-AQ] | –
17 | – | – | CCCCCc1cc(Sc2ccccc2)c2c(c1O)C(=O)c1c(O)c(CCCCC)cc([N+](=O)[O-])c1C2=O [Example 25(c), 2,7-Di-n-pentyl-4-phenylthio-5-nitrochrysazin] | molar extinction coefficient ([4]; 540 nm): 12,541
18 | 0.77 | 592 nm | CCCCCc1cc(Sc2ccccc2)c2c(c1O)C(=O)c1c(O)c(CCCCC)cc(Sc3ccc(C(C)(C)C)cc3)c1C2=O [Example 25(d), 2,7-di-n-pentyl-4-phenylthio-5-(4-t-butylphenylthio)chrysazin] | molar extinction coefficient ([4]; 592 nm): 19,183
19 | – | – | CCCCCCCc1cc(Sc2ccccc2)c2c(c1O)C(=O)c1c(O)c(CCCCCCC)cc([N+](=O)[O-])c1C2=O [Example 26(c), 2,7-Di-n-heptyl-4-phenylthio-5-nitrochrysazin] | molar extinction coefficient ([4]; 540 nm): 12,095
20 | – | – | CC(C)(C)c1ccc(Sc2ccc(Sc3ccccc3)c3c2C(=O)c2c(Sc4ccc(C(C)(C)C)cc4)ccc(Sc4ccc(C(C)(C)C)cc4)c2C3=O)cc1 [Fraction 2, tris-(t-butylphenylthio)-phenylthio-AQ] | Order Parameter ([1]; HPLC fractions, Table 3): 0.78; max [2]: 550 nm
21 | – | – | CC(C)(C)c1ccc(Sc2ccc(Sc3ccccc3)c3c2C(=O)c2c(Sc4ccccc4)ccc(Sc4ccccc4)c2C3=O)cc1 [Fraction 5, tris-(phenylthio)-t-butylphenylthio-AQ] | Order Parameter ([1]; HPLC fractions, Table 3): 0.78; max [2]: 550 nm
22 | – | – | bis-(phenylthio)-bis-(t-butylphenylthio)AQ [Fraction 3] | Solubility [6]: < 0.5%
23 | – | – | bis-(phenylthio)-bis-(t-butylphenylthio)AQ [Fraction 3a] | Order Parameter ([1]; HPLC fractions, Table 3): 0.78; max [2]: 550 nm
24 | – | – | bis-(phenylthio)-bis-(t-butylphenylthio)AQ [Fraction 4] | Order Parameter ([1]; HPLC fractions, Table 3): 0.77; max [2]: 550 nm
